From patent US6090820A, “Spirocyclic and bicyclic diazinyl and carbazinyl oxazolidinones” (Pharmacia & Upjohn Company, priority 1997, dated 2000)
≈ marks a conversion by molar mass, not a printed value. Where two headings read alike, the source gives them in different places.

Key:
S. pneumoniae UC® 9912 = assay: MIC by agar dilution, S. pneumoniae UC 9912; type: cell-based; settings: Streptococcus pneumoniae
Description: (§1) The oxazolidinone antibacterial agents of this invention have useful activity against a variety of organisms. The in vitro activity of compounds of this invention can be assessed by standard testing procedures such as the determination of minimum inhibitory concentration (MIC) by agar dilution as described in "Methods for Dilution Antimicrobial Susceptibility Tests for Bacteria That Grow Aerobically" (MFT) published January 1983 by the National Committee for Clinical Laboratory Standards, 771 East Lancaster Avenue, Villanova, Pa. 19084, USA. The activity of selected compounds of this invention against Staphylococcus aureus and Streptococcus pneumoniae are shown in Table 1.

S. aureus UC ® 9213 = assay: MIC by agar dilution, S. aureus UC 9213; type: cell-based; settings: Staphylococcus aureus
Description: as §1

[1] = UC9912, S. pneumoniae UC 9912, in vitro, agar dilution, read-out: Minimum Inhibitory Concentration
[2] = UC9213, S. aureus UC 9213, in vitro, agar dilution, read-out: Minimum Inhibitory Concentration

MIC (S. pneumoniae UC® 9912; [1]) [µg/mL] | MIC (S. aureus UC ® 9213; [2]) [µg/mL] | SMILES | MIC (S. pneumoniae UC® 9912; UC9912, read-out: Minimum Inhibitory Concentration) [µg/mL] | MIC (S. aureus UC ® 9213; UC9213, read-out: Minimum Inhibitory Concentration) [µg/mL]
1 (≈ 1.96 µM) | 8 (≈ 15.7 µM) | CC(=O)NC[C@H]1CN(c2ccc(N3C[C@H]4CN(C(=O)COCc5ccccc5)C[C@H]4C3)c(F)c2)C(=O)O1 [Example 2, (S)-N-[[3-[3-fluoro4-[cis-3-(benzyloxyacetyl)-3,7-diazabicyclo[3.3.0]octan-7-yl]phenyl]-2-oxo-5-oxazolidinyl]methyl]acetamide] | – | –
< 0.5 | 4 (≈ 9.51 µM) | CC(=O)NC[C@H]1CN(c2ccc(N3C[C@H]4CN(C(=O)CO)C[C@H]4C3)c(F)c2)C(=O)O1 [Example 3, (S)-N-[[3-[3-fluoro4-[cis-3-(hydroxyacetyl)-3,7-diazabicyclo[3.3.0]octan-7-yl]phenyl]-2-oxo-5-oxazolidinyl]methyl]acetamide] | – | –
2 (≈ 4.03 µM) | 4 (≈ 8.06 µM) | CC(=O)NC[C@H]1CN(c2ccc(N3C[C@H]4CN(C(=O)OCc5ccccc5)C[C@H]4C3)c(F)c2)C(=O)O1 [Example 1, (S)-N-[[3-[4-[cis-3-(carbobenzyloxy)-3,7-diazabicyclo[3.3.0]octan-7-yl]-3-fluorophenyl]-2-oxo-5-oxazolidinyl]methyl]acetamide] | – | –
– | – | CN[C@H](CC(C)C)C(=O)N[C@H]1C(=O)N[C@@H](CC(N)=O)C(=O)N[C@H]2C(=O)N[C@H]3C(=O)N[C@H](C(=O)N[C@H](C(=O)O)c4cc(O)cc(O)c4-c4cc3ccc4O)[C@H](O)c3ccc(c(Cl)c3)Oc3cc2cc(c3O[C@@H]2O[C@H](CO)[C@@H](O)[C@H](O)[C@H]2O[C@H]2C[C@](C)(N)[C@H](O)[C@H](C)O2)Oc2ccc(cc2Cl)[C@H]1O [vancomycin, reference compound] | 0.5 (≈ 0.345 µM) | 1 (≈ 0.69 µM)
